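The compound was tested at five concentrations on cells cultured in 96-well plates, with a 48-hour exposure period. Here, GI50 denotes the concentration required for 50% inhibition of growth. TGI is the concentration that stops growth completely.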 Some results are limits rather than exact numbers.

Some test systems named below: COLO 205 colon; LOX IMVI melanoma; NCI-H23 lung; SN12C renal; SW-620 colon; UACC-257 melanoma; CAKI-1 renal.
Experiment in all cases: inhibition of tumour cell growth, NCI panel, 48 h

For the compound `COC(=O)CCC(NC(=S)N/N=C/c1ccco1)C(=O)OC` (stereo not drawn), the TGI in the test with COLO 205 colon, in the test on LOX IMVI melanoma, in the test on NCI-H23 lung, in the test with SN12C renal, with SW-620 colon and with UACC-257 melanoma was above 100 µM each time.

As to `Cc1[nH]c2ccccc2c1C1Cc2ccccc2N1C(=O)/C=C/C(=O)O` (stereo not drawn), the TGI in the test with CAKI-1 renal, in the test with COLO 205 colon, in the test on LOX IMVI melanoma, with NCI-H23 lung, in the test with SN12C renal and in the test on SW-620 colon was above 100 µM throughout. This compound also showed a TGI with UACC-257 melanoma above 100 µM.

In the case of `COc1ccc(C(=O)C(c2ccc(OC)cc2)C2(O)C(=O)Nc3c2ccc(Cl)c3C)cc1` (stereo not drawn), the TGI with COLO 205 colon, in the test with LOX IMVI melanoma, in the test on NCI-H23 lung, in the test on SN12C renal, in the test on SW-620 colon and in the test with UACC-257 melanoma was above 100 µM in each case.

As to `N#CC(c1nc2ccccc2nc1Cl)S(=O)(=O)c1ccccc1` (stereo not drawn), the TGI in the test with CAKI-1 renal, with COLO 205 colon, with LOX IMVI melanoma, with NCI-H23 lung, in the test with SN12C renal and with SW-620 colon was above 100 µM throughout. This compound gave a TGI in the test with UACC-257 melanoma above 100 µM.

On to `C1=C2/CC[C@H](Sc3ccccc3)[C@H]2C2(CCCCC/1)OCCO2`, for which the TGI is 63 µM in the test on CAKI-1 renal; 38.2 µM in the test with COLO 205 colon; 39.5 µM in the test with LOX IMVI melanoma; above 100 µM in the test on NCI-H23 lung; above 100 µM in the test on SN12C renal; above 100 µM in the test on SW-620 colon. Further, in the test with UACC-257 melanoma, the TGI turned out to be 55 µM.

Take `Cc1ccccc1NC(=O)C(=O)CC(=O)c1c(C)n([O-])c2ccccc2[n+]1=O`: the TGI in the test with CAKI-1 renal, in the test with COLO 205 colon, with NCI-H23 lung, with SN12C renal, in the test with SW-620 colon and with UACC-257 melanoma was above 100 µM in each case.

As for `CCc1cccc(C)c1NC(=O)C(=O)Cc1nc2ccccc2s1`, the TGI with CAKI-1 renal, with COLO 205 colon, in the test on NCI-H23 lung, in the test on SN12C renal, with SW-620 colon and in the test on UACC-257 melanoma was above 100 µM throughout.

As for `CCOC(=O)NC(=O)c1cn(CCCCCCOC(=O)NCCCCCCNC(=O)OCCCCCCn2cc(C(=O)NC(=O)OCC)c(=O)[nH]c2=O)c(=O)[nH]c1=O`, the TGI in the test with CAKI-1 renal, in the test with COLO 205 colon, with LOX IMVI melanoma, in the test with SN12C renal, with SW-620 colon and in the test with UACC-257 melanoma was above 100 µM each time.

With `O=C(c1ccccc1)c1cccc(C(=O)c2ccccc2)c1`, the TGI in the test with CAKI-1 renal, in the test with COLO 205 colon, in the test with LOX IMVI melanoma, in the test on NCI-H23 lung, in the test with SN12C renal and with SW-620 colon was above 100 µM each time. The TGI in the test with UACC-257 melanoma was above 100 µM.

As for `Cc1ccc(N2C(=O)C3C=CC(n4[nH]c(=O)n(Cc5ccccc5)c4=O)CC3C2=O)cc1` (stereo not drawn), the TGI in the test with CAKI-1 renal, with COLO 205 colon, in the test with LOX IMVI melanoma, in the test with NCI-H23 lung, in the test on SN12C renal and in the test with SW-620 colon was above 100 µM throughout. Also, the TGI in the test with UACC-257 melanoma is above 100 µM.

For `CCOC(=O)C(=Cc1cccnc1C)C(=O)OCC`, the TGI in the test with CAKI-1 renal came to 18.9 µM; with COLO 205 colon, 18.4 µM; in the test on LOX IMVI melanoma, 14.2 µM; in the test on NCI-H23 lung, 18.4 µM; in the test on SN12C renal, 16.2 µM; with SW-620 colon it was 17.5 µM. Moreover, in the test with UACC-257 melanoma, the TGI is 20.7 µM.

In the case of `COc1cc(C2C(Cl)C(=O)N2NC(=O)c2ccc(N)cc2)ccc1O` (stereo not drawn), the TGI in the test with CAKI-1 renal is 78.9 µM; in the test on COLO 205 colon it was 36.9 µM; in the test with LOX IMVI melanoma it was 32.1 µM; with NCI-H23 lung it was 44.8 µM; in the test on SN12C renal it was above 100 µM; in the test with SW-620 colon it was 35.2 µM. The same compound gave a TGI with UACC-257 melanoma above 100 µM.

Turning to `Cc1cccc(C(C)C)c1NC(=O)CC1C(=O)Nc2ccccc2S1(=O)=O` (stereo not drawn), the TGI is above 50 µM in the test with CAKI-1 renal; above 100 µM in the test with COLO 205 colon; above 51.8 µM in the test on LOX IMVI melanoma; 31.3 µM in the test on NCI-H23 lung; above 59.4 µM with SN12C renal; 30.4 µM in the test with SW-620 colon. The compound further gave a TGI in the test on UACC-257 melanoma above 70.8 µM.

Take `O=c1c2ccccc2nc(-c2ccccc2)n1NC1OC(CO)C(O)C(O)C1O` (stereo not drawn): the TGI with CAKI-1 renal, in the test with COLO 205 colon, in the test on NCI-H23 lung, in the test with SN12C renal, in the test with SW-620 colon and with UACC-257 melanoma was above 100 µM throughout.

Take `COc1ccc(OC)c2c1C(=O)C1CC1(Br)C2=O` (stereo not drawn): the TGI with CAKI-1 renal, in the test on COLO 205 colon, in the test on LOX IMVI melanoma, with NCI-H23 lung, in the test with SN12C renal and in the test with SW-620 colon was above 100 µM each time. Also, in the test with UACC-257 melanoma, the TGI was above 100 µM.

As for `COc1ccc(/C=N/N=C(\N)NO)c(OC)c1`, the TGI in the test on CAKI-1 renal, in the test with COLO 205 colon, with LOX IMVI melanoma, with NCI-H23 lung, with SN12C renal and with SW-620 colon was above 100 µM each time. In addition, in the test on UACC-257 melanoma, the TGI is above 100 µM.

Take `Cc1ccc(Nc2nc(C)c(C(/C=C/c3ccc(/C=C/C(=N/NC(=O)C[n+]4ccccc4)c4sc(Nc5ccc(C)cc5[N+](=O)[O-])nc4C)cc3)=N\NC(=O)C[n+]3ccccc3)s2)c([N+](=O)[O-])c1`: the TGI in the test on CAKI-1 renal, in the test on COLO 205 colon, in the test on LOX IMVI melanoma, in the test with NCI-H23 lung, in the test on SN12C renal and in the test with SW-620 colon was above 100 µM in each case. In addition, the TGI with UACC-257 melanoma is above 100 µM.

Turning to `COC(=O)c1cc(Cl)ccc1NC(=O)c1ccc([N+](=O)[O-])cc1`, the TGI is 53.1 µM in the test with CAKI-1 renal, 50.3 µM in the test with NCI-H23 lung, above 100 µM in the test on SW-620 colon and above 100 µM in the test on UACC-257 melanoma.

`C[C@]12CCC3[C@@H](CC[C@@H]4c5nonc5CC[C@]34C)C1C/C(=N/O)C2=O` (stereo partly drawn): the TGI with CAKI-1 renal, with COLO 205 colon, in the test with LOX IMVI melanoma, in the test with NCI-H23 lung, in the test with SN12C renal and in the test on SW-620 colon was above 100 µM in each case. In addition, the TGI in the test on UACC-257 melanoma is above 100 µM.

Consider `O=CC1CCCc2ccccc21` (stereo not drawn), for which the TGI is above 100 µM with CAKI-1 renal; above 61.4 µM with COLO 205 colon; above 62.4 µM with LOX IMVI melanoma; above 100 µM with NCI-H23 lung; above 100 µM with SN12C renal; above 56.6 µM in the test with SW-620 colon. The compound further registered a TGI in the test on UACC-257 melanoma above 100 µM.

In the case of `Cc1ccc(C)c(NC(=O)CC/C(=N\NC(=O)c2c(O)ccc3ccccc23)C(C)C(=O)c2ccc(O)cc2)c1` (stereo not drawn), the TGI in the test on CAKI-1 renal was above 100 µM; in the test with COLO 205 colon, 51.3 µM; in the test with LOX IMVI melanoma it was 39.6 µM; in the test with NCI-H23 lung, 91.3 µM; with SN12C renal it was above 100 µM; in the test on SW-620 colon, above 100 µM. Besides, in the test on UACC-257 melanoma, the TGI amounted to 87.1 µM.

Take `O=C1CC(S(=O)(=O)O)C=C1Nc1cccc(Cl)c1` (stereo not drawn): the TGI in the test with CAKI-1 renal, with COLO 205 colon, in the test on LOX IMVI melanoma, with NCI-H23 lung, with SN12C renal and in the test on SW-620 colon was above 100 µM each time. The TGI in the test on UACC-257 melanoma was above 100 µM.

Consider `CC1=C2C(=CC(C)(C)C2O)C(=O)C(C)(O)C12CC2` (stereo not drawn), for which the TGI is 0.0315 µM with CAKI-1 renal; 0.0621 µM in the test with COLO 205 colon; 0.025 µM in the test with LOX IMVI melanoma; 0.0234 µM in the test with NCI-H23 lung; 0.146 µM in the test with SN12C renal; 0.0752 µM in the test on SW-620 colon. The TGI in the test with UACC-257 melanoma came to 0.0442 µM. Moreover, in the test on COLO 205 colon, the GI50 is 0.0191 µM.

On to `[N-]=[N+]=NC(CI)c1cn([C@H]2C[C@H](O)[C@@H](CO)O2)c(=O)[nH]c1=O` (stereo partly drawn), for which the TGI in the test on CAKI-1 renal, with COLO 205 colon, in the test with LOX IMVI melanoma, in the test on NCI-H23 lung, with SN12C renal and in the test on SW-620 colon was above 100 µM throughout.

As to `O=CN/C=C/c1ccc(O)c(O)c1`, the TGI in the test on CAKI-1 renal, in the test with COLO 205 colon, in the test on LOX IMVI melanoma, with NCI-H23 lung, in the test on SN12C renal and in the test on SW-620 colon was above 100 µM throughout. The TGI with UACC-257 melanoma is above 100 µM.

For the compound `COC(=O)C1=C(c2cc(OC)c(OC)c(OC)c2)OC(c2ccc(OC)c(OC)c2)C1` (stereo not drawn), the TGI in the test on CAKI-1 renal is above 100 µM; in the test with COLO 205 colon, 42.6 µM; in the test on LOX IMVI melanoma, above 100 µM; with NCI-H23 lung it was above 100 µM; in the test on SN12C renal it was above 100 µM; in the test with SW-620 colon, 87 µM. The TGI with UACC-257 melanoma was above 100 µM.

For `COc1ccc(C2=NN(c3ccccc3)C[N+](c3ccc(OC)cc3)=N2)cc1`, the TGI with LOX IMVI melanoma was 61.9 µM; with NCI-H23 lung it was 93.1 µM; in the test with SN12C renal, above 100 µM; in the test with SW-620 colon, 61 µM; in the test on UACC-257 melanoma, above 100 µM.

The values are drawn from PubChem BioAssay (NCI).
